Reference: US20150104525A1, “METHOD OF DECREASING FEED CONVERSION RATIO IN FOWL” (Reoxcyn Discoveries Group, Inc., priority 2013, published 2015)

Test system: NRF2
Experiment: Western Blot validation of NRF2 nuclear accumulation and extra-nuclear protein phosphorylation
Format: cell-based, human
Conditions: HMVEC-L
Experimental: 8. A Western Blot analysis was done on extra-nuclear and intra-nuclear fractions, separated by differential centrifugation, of serum starved HMVEC-L cell cultures exposed to <1% of a composition of the invention compared with a positive hydrogen peroxide control to determine phosphorylation events (oxidant action) in the extra-nuclear fraction and NRF2 (antioxidant transcription) in the intra-nuclear fraction at 0, 30, 60, 90 and 120 min intervals.
Experimental Methods for Western Blot Validation of NRF2 Nuclear Accumulation: HMVEC-L were treated with 1% of a composition of the invention, nuclear extracts were separated through centrifugal differentiation from the extra-nuclear cytosol at 30, 60 and 120 min and subjected to Western Blot analysis for NRF2. In the Western blot experiment the extra-nuclear fraction was probed for phosphorylated proteins using a combination of anti-phospho serine, threonine and tyrosine antibodies. Virtually all cellular processes are regulated by posttranslational modifications and protein phosphorylation is a prevalent mechanism. […]

OO [H2O2, Hydrogen peroxide]
nuclear NRF2 levels (H2O2 positive control, 30 min): did not increase nuclear NRF2 levels
phosphorylation of extra-nuclear protein (H2O2 treatment): marked increase in the phosphorylation
